Experimental findings from US8691842B2, “Pharmaceutical composition for preventing or treating rheumatoid arthritis, containing rebamipide” (Catholic University Industry Academic Cooperation Foundation, priority 2009, dated 2014) are described below.

Assay type in all cases: in vivo, DBA/1J mice
Experiment [1] concerns collagen induced arthritis (CIA) animal model. Kind of experiment: Average arthritis score in collagen induced arthritis (CIA) animals. Conditions: CIA mice; rebamipide 0.6 mg/kg or 6 mg/kg orally, every other day, ten times; evaluated second to tenth week; FIG. 1.
The subject of experiment [2] is CII-specific immunoglobulin (total IgG). Briefly: Serologic test (ELISA) measuring collagen-specific antibody in serum of CIA animals. To be noted: CIA mice, rebamipide orally, serum diluted 1:8000, FIG. 3. Background: In an ELISA, binding on a coated surface is turned into a signal by an enzyme label.
Experiment [3] deals with collagen induced arthritis (CIA) animal model. Briefly: Histological test of joints and cartilage in CIA animals. Conditions: CIA mice, FIG. 2.

SMILES strings stand for the structures. “Also recorded” adds a separate entry of the source.

Regarding `O=C(NC(Cc1cc(=O)[nH]c2ccccc12)C(=O)O)c1ccc(Cl)cc1` (stereo not shown) [rebamipide], the arthritis score entry in experiment [1] is reported as “dose-dependently decreased; also recorded: gradually decreased”. The “level of Type II collagen-specific immunoglobulin (total IgG) in serum” value in experiment [2] is listed as “significantly decreased”. The “degree of joint and cartilage destruction” value in experiment [3] (rebamipide 0.6 mg/kg or 6 mg/kg orally, sacrificed after 10 weeks, hematoxylin and eosin, toluidine blue, safranin O) is listed as “remarkably reduced”. The “degree of cartilage destruction” value in experiment [3] (rebamipide orally, histological assay) was “improved, being similar to that of a normal mouse”.
